In PubChem BioAssay (NCI):
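Exposure lasted 48 hours, with cells grown in 96-well plates and compounds tested at five concentrations. GI50 = concentration required for 50% inhibition of growth. TGI marks complete inhibition of growth.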

What was measured:
Experiment in all cases: inhibition of tumour cell growth, NCI panel, 48 h
OVCAR-5 ovarian = tested on: OVCAR-5 ovarian
HL-60(TB) leukemia = tested on: HL-60(TB) leukemia
U251 CNS = tested on: U251 CNS
UO-31 renal = tested on: UO-31 renal
MDA-MB-435 = tested on: MDA-MB-435
UACC-257 melanoma = tested on: UACC-257 melanoma
OVCAR-4 ovarian = tested on: OVCAR-4 ovarian
NCI-H522 lung = tested on: NCI-H522 lung
HCT-15 colon = tested on: HCT-15 colon
T-47D breast = tested on: T-47D breast
NCI-H460 lung = tested on: NCI-H460 lung
SN12C renal = tested on: SN12C renal
OVCAR-3 ovarian = tested on: OVCAR-3 ovarian
TK-10 renal = tested on: TK-10 renal
MCF7 breast = tested on: MCF7 breast
SF-539 CNS = tested on: SF-539 CNS
SF-268 CNS = tested on: SF-268 CNS
786-0 renal = tested on: 786-0 renal
M14 melanoma = tested on: M14 melanoma
DU-145 prostate = tested on: DU-145 prostate
SW-620 colon = tested on: SW-620 colon
NCI-H23 lung = tested on: NCI-H23 lung
CAKI-1 renal = tested on: CAKI-1 renal
SK-MEL-2 melanoma = tested on: SK-MEL-2 melanoma
SK-OV-3 ovarian = tested on: SK-OV-3 ovarian
IGROV1 ovarian = tested on: IGROV1 ovarian
SNB-75 CNS = tested on: SNB-75 CNS
ACHN renal = tested on: ACHN renal
RPMI-8226 leukemia = tested on: RPMI-8226 leukemia

C[C@]12CC[C@@H]3c4cc(OC(F)F)c(OS(N)(=O)=O)cc4CC[C@H]3[C@@H]1CC[C@@H]2O
GI50 (OVCAR-5 ovarian): 1.77 µM | TGI (OVCAR-5 ovarian): > 62.8 µM | GI50 (HL-60(TB) leukemia): 0.338 µM | TGI (HL-60(TB) leukemia): 2.49 µM | GI50 (U251 CNS): 0.539 µM | TGI (U251 CNS): 16.4 µM | GI50 (UO-31 renal): 0.769 µM | TGI (UO-31 renal): 26.6 µM | GI50 (MDA-MB-435): 0.209 µM | TGI (MDA-MB-435): 0.603 µM | GI50 (UACC-257 melanoma): 3.76 µM | TGI (UACC-257 melanoma): 25.8 µM | GI50 (OVCAR-4 ovarian): 7.8 µM | TGI (OVCAR-4 ovarian): 83.9 µM | GI50 (NCI-H522 lung): 0.274 µM | TGI (NCI-H522 lung): 14.8 µM | GI50 (HCT-15 colon): 0.406 µM | TGI (HCT-15 colon): 13.6 µM | GI50 (T-47D breast): 0.445 µM | TGI (T-47D breast): 43.2 µM | GI50 (NCI-H460 lung): 0.401 µM | TGI (NCI-H460 lung): 11.3 µM | GI50 (SN12C renal): 0.608 µM | TGI (SN12C renal): 19.1 µM | GI50 (OVCAR-3 ovarian): 0.39 µM | TGI (OVCAR-3 ovarian): 11.1 µM | GI50 (TK-10 renal): 17 µM | TGI (TK-10 renal): > 77.2 µM | GI50 (MCF7 breast): 0.39 µM | TGI (MCF7 breast): 20.8 µM | GI50 (SF-539 CNS): 0.333 µM | TGI (SF-539 CNS): 4.58 µM | GI50 (SF-268 CNS): 1.49 µM | TGI (SF-268 CNS): 60.3 µM | GI50 (786-0 renal): 0.621 µM | TGI (786-0 renal): 29.1 µM | GI50 (M14 melanoma): 0.343 µM | TGI (M14 melanoma): 14.6 µM | GI50 (DU-145 prostate): 0.49 µM | TGI (DU-145 prostate): > 100 µM | GI50 (SW-620 colon): 0.407 µM | TGI (SW-620 colon): 28.8 µM | GI50 (NCI-H23 lung): 0.621 µM | TGI (NCI-H23 lung): 20.1 µM | GI50 (CAKI-1 renal): 0.485 µM | TGI (CAKI-1 renal): 44.1 µM | GI50 (SK-MEL-2 melanoma): 3.34 µM | TGI (SK-MEL-2 melanoma): 38.7 µM | GI50 (SK-OV-3 ovarian): 0.683 µM | TGI (SK-OV-3 ovarian): 76.9 µM | GI50 (IGROV1 ovarian): 0.646 µM | TGI (IGROV1 ovarian): 24.9 µM | GI50 (SNB-75 CNS): 0.193 µM | TGI (SNB-75 CNS): 0.665 µM | GI50 (ACHN renal): 0.65 µM | TGI (ACHN renal): 49.1 µM | GI50 (RPMI-8226 leukemia): 0.449 µM | TGI (RPMI-8226 leukemia): 21.9 µM
